Source: PubChem BioAssay (NCI)
“And” between values parts separate entries of the source, which are not always exact repeats. Equal entries are not always repeated.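 Results reflect a 48-hour exposure of cells in 96-well plates to compound at five concentrations. Abbreviation: GI50, concentration required for 50% inhibition of growth. The concentration for full growth arrest is given as TGI.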

Assays:
Experiment in all cases: inhibition of tumour cell growth, NCI panel, 48 h
SW-620 colon = tested on: SW-620 colon
CCRF-CEM leukemia = tested on: CCRF-CEM leukemia
SNB-19 CNS = tested on: SNB-19 CNS
UACC-62 melanoma = tested on: UACC-62 melanoma
HL-60(TB) leukemia = tested on: HL-60(TB) leukemia
PC-3 prostate = tested on: PC-3 prostate
A498 renal = tested on: A498 renal
786-0 renal = tested on: 786-0 renal
SF-268 CNS = tested on: SF-268 CNS
HCC-2998 colon = tested on: HCC-2998 colon

SMILES	TGI (SW-620 colon)	TGI (CCRF-CEM leukemia)	TGI (SNB-19 CNS)	TGI (UACC-62 melanoma)	TGI (HL-60(TB) leukemia)	TGI (PC-3 prostate)	TGI (A498 renal)	TGI (786-0 renal)	TGI (SF-268 CNS)	TGI (HCC-2998 colon)	GI50 (SW-620 colon)	GI50 (CCRF-CEM leukemia)	GI50 (UACC-62 melanoma)	GI50 (HL-60(TB) leukemia)	GI50 (PC-3 prostate)	GI50 (A498 renal)	GI50 (786-0 renal)	GI50 (SF-268 CNS)	GI50 (HCC-2998 colon)	GI50 (SNB-19 CNS)
COc1ccc(/C=C/c2ccnc3ccccc23)cc1	36.3 µM	28.7 µM	36.8 µM	29.2 µM	20.1 µM	39.7 µM	27.9 µM	30.6 µM	30.4 µM	36.6 µM										
O=C1/C(=C\c2ccc([N+](=O)[O-])cc2)CS(=O)(=O)C/C1=C/c1ccc([N+](=O)[O-])cc1	0.481 µM and 2.74 µM	0.133 µM	22.2 µM	0.519 µM and 4.12 µM	0.145 µM	0.713 µM and 1.51 µM	0.966 µM and 3.37 µM	0.356 µM and 0.359 µM	10.5 µM	25.6 µM	0.0889 µM	0.0128 µM	1.84 µM	0.0138 µM	0.194 µM	0.332 µM	0.133 µM	0.359 µM	11.3 µM	
NC(Cn1ccc(=O)c(O)c1)C(=O)O (centres undefined)	> 100 µM	> 100 µM	> 100 µM	> 100 µM	> 100 µM	> 100 µM	> 100 µM	> 100 µM	> 100 µM	> 100 µM										
O=c1[nH]cc(CO)c(=O)[nH]1	> 100 µM	> 100 µM	> 100 µM	> 100 µM	> 100 µM	> 100 µM	> 100 µM	> 100 µM	> 100 µM	> 100 µM	> 100 µM	> 100 µM	> 100 µM	> 100 µM	> 100 µM	> 100 µM	> 100 µM	> 100 µM	> 100 µM	> 100 µM
Cc1ccc(NC(C(=O)c2ccccc2)c2ccccc2)cc1 (centres undefined)	> 100 µM	51.1 µM	> 100 µM	> 100 µM	6.57 µM	52.4 µM	15.5 µM	15.6 µM	14.2 µM	> 100 µM	3.47 µM	3.98 µM	3.93 µM	2.59 µM	2.78 µM	2.91 µM	4.02 µM	3.1 µM	4.52 µM	4.26 µM
Cc1cc(NS(=O)(=O)c2ccc(NC(=O)COc3ccc(-c4cc5ccccc5[nH]4)cc3)cc2)no1	3.52 µM	> 100 µM	8.69 µM	3.26 µM	32.6 µM	6.91 µM	6.58 µM	3.65 µM	7.74 µM	4.94 µM	1.48 µM	2.13 µM	1.53 µM	2.84 µM	1.94 µM	1.7 µM	1.93 µM	2.33 µM	2.07 µM	2.23 µM
[CH3][Sn]([CH3])([CH3])[O]C(=O)C(O)c1ccccc1 (centres undefined)	> 100 µM	> 73.5 µM	> 89.2 µM	4.49 µM	> 40.5 µM	> 100 µM	63.9 µM	> 100 µM	> 82.7 µM	7.15 µM	5.13 µM	4.84 µM	2.11 µM	4.75 µM	2.4 µM	13.8 µM	4.81 µM	6.2 µM	2.32 µM	17 µM
Cc1ccc(-c2c3c(N)nc(-c4ccncc4)nc3nc3c2c(C)nn3-c2ccccc2)cc1	> 37.5 µM	> 37.5 µM	> 37.5 µM	> 37.5 µM	> 37.5 µM	> 37.5 µM	> 37.5 µM	> 37.5 µM	> 37.5 µM	> 37.5 µM	9.99 µM	12.6 µM	13.8 µM	> 37.5 µM	32.3 µM	5.81 µM	12.4 µM	8.27 µM	> 37.5 µM	> 37.5 µM
Cc1ccc2c(n1)C(=O)C(Cl)=C(Nc1ccc(N3CCN(C)CC3)cc1)C2=O	4.52 µM	56.4 µM	21.7 µM	3.12 µM	4.89 µM	3.16 µM	25.6 µM	3.1 µM	4.13 µM	17.5 µM	2.01 µM	3.07 µM	1.71 µM	2.22 µM	1.57 µM	12.8 µM	1.71 µM	1.89 µM	4.54 µM	9.46 µM
O=C1c2cccc3cccc(c23)C(=O)N1CC#Cc1ccc2c3c(cccc13)C(=O)N(CCN1CCNCC1)C2=O	3.79 µM	5.06 µM	4.18 µM	4.44 µM	> 100 µM	11.6 µM	31.1 µM	3.53 µM	35.5 µM	4.94 µM	1.94 µM	2.01 µM	1.88 µM	4.12 µM	3.22 µM	15.4 µM	1.86 µM	13.5 µM	2.1 µM	1.96 µM
COc1cc(-c2ccc(Nc3ccccc3C(=O)O)c(OC)c2)ccc1Nc1ccccc1C(=O)O	> 100 µM	86.1 µM	> 100 µM	35.6 µM	65.8 µM	> 67.4 µM	> 96.5 µM	> 100 µM	> 100 µM	> 82 µM										
O=c1c(-c2ccc3c(c2)OCO3)coc2c(CO)c(O)ccc12	18.5 µM	> 100 µM	10.3 µM	3.59 µM	5.9 µM	4.03 µM	3.95 µM	4.6 µM	4.41 µM	3.89 µM	4.06 µM	3.44 µM	1.66 µM	2.25 µM	1.54 µM	1.76 µM	1.97 µM	1.96 µM	2.01 µM	2.87 µM
CC(=O)NC1CCCN(O)C(=O)/C=C(/C)CCOC(=O)C(NC(C)=O)CCCN(O)C(=O)/C=C(/C)CCOC(=O)C(NC(C)=O)CCCN(O)C(=O)/C=C(/C)CCOC1=O.[Fe] (centres undefined)	> 100 µM	> 100 µM	> 100 µM	> 100 µM	> 100 µM	> 100 µM	> 100 µM	> 100 µM	> 100 µM	> 100 µM	> 100 µM	> 100 µM	> 100 µM	> 100 µM	> 100 µM	> 100 µM	> 100 µM	> 100 µM	> 100 µM	> 100 µM
CCCCCCCCn1ccc2cc(NC(=O)Cn3cc(CN4CCC(C)CC4)nn3)ccc21	3.46 µM	9.71 µM	3.42 µM	3.37 µM	3.58 µM	3.68 µM	3.27 µM	2.81 µM	3.53 µM	3.24 µM	1.77 µM	2.5 µM	1.88 µM	1.77 µM	1.73 µM	1.6 µM	1.48 µM	1.82 µM	1.74 µM	1.76 µM
O=S1CCN(Cc2ccc(-c3ccc4ncnc(Nc5ccc(OCc6ccccc6)c(F)c5)c4c3)o2)CC1	> 25 µM	> 25 µM	> 25 µM	16 µM	18.6 µM	> 25 µM	21.6 µM	18.6 µM	> 25 µM	> 25 µM	10.8 µM	8.82 µM	5.1 µM	8.32 µM	9.98 µM	3.68 µM	6.59 µM	17.8 µM	9.93 µM	23.4 µM
